The subject of this assay is weed. The assay is described as follows: Experiments varying water quality and application volumes. It is filed as in vivo. As to conditions: applied at recommended rates with these adjuvant systems. The source says: Mesotrione, (2-[4-methylsulfonyl-2-nitrobenzoyl]-1,3-cyclohexane dione), is a new broadleaf weed herbicide being developed for post emergence and preemergence use in corn. Adjuvants are highly preferred in order to optimise its post emergence activity. Glasshouse and field experiments have been conducted to evaluate weed and crop response to mesotrione applied post emergence with several adjuvant systems. Rates of mesotrione ranged from 50 to 140 g active ingredient (ai) per […]. Adjuvant systems tested include; • (i) no adjuvant (control), • (ii) crop oil concentrate (COC), • (iii) non-ionic surfactant (NIS), and • (iv) methylated seed oil (MSO), each with and without urea ammonium nitrate (UAN and ammonium sulphate (AMS) fertilizers.
The use of methylated seed oil with mesotrione increases the potential for crop injury.

`CS(=O)(=O)c1ccc(C(=O)C2C(=O)CCCC2=O)c([N+](=O)[O-])c1` [mesotrione, 2-[4-methylsulfonyl-2-nitrobenzoyl]-1,3-cyclohexane dione]: the “impact of varying water quality and application volumes on activity” value is on record as “little or no impact”.

These data come from US6890889B1, “Mesotrione formulations” (priority 2000, dated 2005).
